From PMC5773651, “Customised in vitro model to detect human metabolism-dependent idiosyncratic drug-induced liver injury” (Archives of Toxicology, 2017)
Like-named read-outs stand apart in the source and are kept apart here. Marks after values point to notes of the source that are not given here.

Legend:
HepG2 cells [1] = experiment: Cell viability (PI), IC50, control HepG2 cells; type: cell-based; conditions: Homo sapiens; control non-transduced HepG2; 24 h; unit inferred, tested range in µM; read-out: IC50 (cell viability), C
[2] = system: HepG2 cells transduced with AdCYP2C9; experiment: Cell viability (PI), IC50, AdCYP2C9-HepG2; type: cell-based; conditions: Homo sapiens, unit inferred, tested range in µM
[3] = system: HepG2 cells transduced with AdCYP2C19; experiment: Cell viability (PI), IC50, AdCYP2C19-HepG2; type: cell-based; conditions: Homo sapiens, unit inferred, tested range in µM
Method: (§1) For subculturing purposes, cells were detached by treatment with 0.25% trypsin/0.02% EDTA at 37 °C. For the adenovirus infection studies, cells were seeded in 96-well plates (5000 cells/well) and adenovirus-containing medium was added 48 h later. After 24 h, cells were transferred to the adenovirus-free medium and cultured for an additional 24-h period prior to the incubations performed with the test chemicals. To optimise the expression of the functional enzymes in the adenovirus-transduced HepG2 (Ad-HepG2) cells, different doses (MOI, multiplicity of infection, defined as plaque formation units per cell) of each adenovirus were tested.
(§2) The drugs included in the study were chosen based on previous information about their hepatotoxicity. Information on the potential mechanisms implicated in the toxicity of each compound and the major enzymes involved in their metabolism is summarised in Table 1. HepG2 or Ad-HepG2 (48 h post-infection) cells were exposed for 24 h to eight concentrations of the tested compounds. Each experimental condition was repeated independently three times (with three wells measured each time). The stock solutions of compounds were prepared in DMSO and were conveniently diluted in the culture medium to obtain the desired final concentrations. The final DMSO concentration in the culture medium was 0.5% (v/v), and the control cultures were treated with the same amount of solvent.
(§3) Following treatments, cells were simultaneously loaded with several fluorescent dyes to measure multiple biomarkers of cell toxicity. […] Information about the probes is summarised in Supplementary Table S2.
(§4) After incubating with dyes, cells were imaged by the Scan^R system (Olympus, Germany). Dyes were excited, and their fluorescence was monitored at the excitation and emission wavelengths at appropriate filter settings. The collected images were analysed using the Scan^R analysis module, which allows the simultaneous quantification of subcellular structures that are stained by different fluorescent probes.

[4] = system: HepG2 cells transduced with AdCYP3A4; experiment: Cell viability (PI), IC50, AdCYP3A4-HepG2; type: cell-based; conditions: Homo sapiens, unit inferred, tested range in µM
Method: as §1, §2, §3, §4

[5] = system: HepG2 cells transduced with AdCYP3A4; experiment: HCS hepatotoxicity assay (MEC, TR), AdCYP3A4-HepG2; type: cell-based, human; conditions: 24 h; for TR: TR = 100 x Cmax/lowest MEC; for MEC Apoptosis / MEC Calcium / MEC MMP / MEC Mitochondrial superoxide / MEC ROS: unit not given, tested range in µM
HepG2 cells [6] = conditions: human, 24 h
Method: as §1, §2, §3, §4

[7] = system: HepG2 cells co-transduced with AdCYP3A4 and AdCYP2C9; experiment: HCS hepatotoxicity assay (MEC, TR), AdCYP3A4 + AdCYP2C9 HepG2; type: cell-based, human; conditions: 24 h; for TR: TR = 100 x Cmax/lowest MEC; for MEC Apoptosis / MEC Calcium / MEC MMP / MEC Mitochondrial superoxide / MEC ROS: unit not given, tested range in µM
[8] = system: HepG2 cells co-transduced with AdCYP3A4 and AdUGT2B7; experiment: HCS hepatotoxicity assay (MEC, TR), AdCYP3A4 + AdUGT2B7 HepG2; type: cell-based, human; conditions: 24 h; for TR: TR = 100 x Cmax/lowest MEC; for MEC Apoptosis / MEC Calcium / MEC MMP / MEC Mitochondrial superoxide / MEC ROS: unit not given, tested range in µM
[9] = system: HepG2 cells transduced with CYP3A4 in the presence of CYP2C19; experiment: HCS hepatotoxicity assay (MEC, TR), AdCYP3A4 + AdCYP2C19 HepG2; type: cell-based, human; conditions: CYP3A4-4X + CYP2C19-1X, 24 h
Description: For all the compounds and studied parameters, the MEC led to at least a 20% variation in fluorescence intensity or in the corresponding morphological parameter compared to the untreated cultures.

[10] = ref Atienzar et al. ([2014]), Garside et al. ([2014]), Tolosa et al. ([2012b]); cited from earlier work
[11] = system: HepG2 cells transduced with AdCYP2C9; experiment: HCS hepatotoxicity assay (MEC, TR), AdCYP2C9-HepG2; type: cell-based, human; conditions: 24 h; for TR: TR = 100 x Cmax/lowest MEC; for MEC Apoptosis / MEC Calcium / MEC MMP / MEC Mitochondrial superoxide / MEC ROS: unit inferred, tested range in µM
Method: as §1, §2, §3, §4

[12] = cited from earlier work; for Bioactivation / Enzyme: major enzyme(s) involved in the bioactivation (denoted as *) or detoxification of the drug: previous information; for Toxicity (mechanisms of toxicity): ref Ashrafian et al. [2007], Donato et al. [2009], Fromenty and Pessayre [1997], Rolo et al. [2000], Tolosa et al. [2012b]
[13] = ADV CYP2C9 x1, 24 h, read-out: IC50 (cell viability), ADV dose x1
[14] = ADV CYP2C9 x4, 24 h, read-out: IC50 (cell viability), ADV dose x4
[15] = ADV CYP2C9 x10, 24 h, read-out: IC50 (cell viability), ADV dose x10
[16] = ADV CYP3A4 x1, 24 h, read-out: IC50 (cell viability), ADV dose x1
[17] = ADV CYP3A4 x4, 24 h, read-out: IC50 (cell viability), ADV dose x4
[18] = ADV CYP3A4 x10, 24 h, read-out: IC50 (cell viability), ADV dose x10
[19] = unit not given, tested range in µM

## O=C(O)Cc1ccccc1Nc1c(Cl)cccc1Cl [Diclofenac]
HepG2 cells [1]
  IC50: 167 µM
[2]; [13]
  IC50: 42.1 µM
[2]; [14]
  IC50: 51.6 µM
[2]; [15]
  IC50: 15.5 µM
[3]; ADV CYP2C19 x1, 24 h, read-out: IC50 (cell viability), ADV dose x1
  IC50: 140 µM
[3]; ADV CYP2C19 x4, 24 h, read-out: IC50 (cell viability), ADV dose x4
  IC50: 158 µM
[3]; ADV CYP2C19 x10, 24 h, read-out: IC50 (cell viability), ADV dose x10
  IC50: 11.5 µM
[4]; [16]
  IC50: 126 µM
[4]; [17]
  IC50: 99 µM
[4]; [18]
  IC50: 2.8 µM
[5]; AdCYP 3A4 1x
  TR: 42
  MEC Apoptosis: 125
  MEC Calcium: 10
  MEC MMP: 125
  MEC Mitochondrial superoxide: 50
  MEC ROS: 10
[5]; AdCYP 3A4 4x
  TR: 84
  MEC Apoptosis: 10
  MEC Calcium: 10
  MEC MMP: 125
  MEC Mitochondrial superoxide: 5
  MEC ROS: 5
HepG2 cells [6]
  MEC Apoptosis: 125 µM
  MEC Calcium: 50
  MEC MMP: 250
  MEC Mitochondrial superoxide: 125
  MEC ROS: 50
  TR: 8.4
[7]; CYP3A4-1X + CYP2C9-1X
  TR: 84
  MEC Apoptosis: 125
  MEC Calcium: 10
  MEC MMP: 125
  MEC Mitochondrial superoxide: 50
  MEC ROS: 5
[7]; CYP3A4-4X + CYP2C9-1X
  TR: 84
  MEC Apoptosis: 10
  MEC Calcium: 10
  MEC MMP: 125
  MEC Mitochondrial superoxide: 5
  MEC ROS: 5
[8]; CYP3A4-1X + UGT2B7
  TR: 84
  MEC Apoptosis: 5
  MEC Calcium: 10
  MEC MMP: 50
  MEC Mitochondrial superoxide: 5
  MEC ROS: 5
[8]; CYP3A4-4X + UGT2B7
  TR: 84
  MEC Apoptosis: 5
  MEC Calcium: 5
  MEC MMP: 50
  MEC Mitochondrial superoxide: 5
  MEC ROS: 5
[9]; TR = 100 x Cmax/lowest MEC
  TR: 42
[9]; [19]
  MEC Apoptosis: 50
  MEC Calcium: 50
  MEC MMP: 125
  MEC Mitochondrial superoxide: 10
  MEC ROS: 10
[10]
  Cmax: 4.2 µM

## O=C(O)COc1ccc(C(=O)c2cccs2)c(Cl)c1Cl [Tienilic acid]
HepG2 cells [1]
  IC50: > 1200 µM
[2]; [13]
  IC50: > 1200 µM
[2]; [14]
  IC50: 1160 µM
[2]; [15]
  IC50: 846 µM
[11]; AdCYP 2C9 1x
  TR: 13.8
  MEC Apoptosis: 600 µM
  MEC Calcium: 600 µM
  MEC MMP: > 1200 µM
  MEC Mitochondrial superoxide: 600 µM
  MEC ROS: 800 µM
[11]; AdCYP 2C9 4x
  TR: 20.7
  MEC Apoptosis: 400 µM
  MEC Calcium: 400 µM
  MEC MMP: > 1200 µM
  MEC Mitochondrial superoxide: 400 µM
  MEC ROS: 600 µM
[11]; AdCYP 2C9 10x
  TR: 41.3
  MEC Apoptosis: 200 µM
  MEC Calcium: 200 µM
  MEC MMP: > 1200 µM
  MEC Mitochondrial superoxide: 400 µM
  MEC ROS: 400 µM
HepG2 cells [6]
  MEC Apoptosis: 1200 µM
  MEC Calcium: 800
  MEC MMP: >1200
  MEC Mitochondrial superoxide: 800
  MEC ROS: 1200
  TR: 10.3
[10]
  Cmax: 82.7 µM
[12]
  Bioactivation: Yes
  Enzyme: major enzyme(s) involved in the bioactivation (denoted as *) or detoxification of the drug: CYP2C9*
  Toxicity (mechanisms of toxicity): CB, OS

## Cc1c(C)c2c(c(C)c1O)CCC(C)(COc1ccc(CC3SC(=O)NC3=O)cc1)O2 (stereo not drawn) [Troglitazone]
HepG2 cells [1]
  IC50: 213 µM
[4]; [16]
  IC50: 86 µM
[4]; [17]
  IC50: 76 µM
[4]; [18]
  IC50: < 50 µM
[5]; AdCYP 3A4 1x
  TR: 12.8
  MEC Apoptosis: 100
  MEC Calcium: 75
  MEC MMP: 200
  MEC Mitochondrial superoxide: 200
  MEC ROS: 50
[5]; AdCYP 3A4 4x
  TR: 12.8
  MEC Apoptosis: 75
  MEC Calcium: 50
  MEC MMP: 200
  MEC Mitochondrial superoxide: 75
  MEC ROS: 50
[5]; AdCYP 3A4 10x
  TR: 12.8
  MEC Apoptosis: 50
  MEC Calcium: 50
  MEC MMP: 150
  MEC Mitochondrial superoxide: 50
  MEC ROS: 50
HepG2 cells [6]
  MEC Apoptosis: 100 µM
  MEC Calcium: 100
  MEC MMP: 200
  MEC Mitochondrial superoxide: 200
  MEC ROS: 100
  TR: 6.4
[12]
  Bioactivation: Yes
  Enzyme: major enzyme(s) involved in the bioactivation (denoted as *) or detoxification of the drug: CYP3A4*
  Toxicity (mechanisms of toxicity): MI, OS
[12]; ref Gustafsson et al. ([2014])
  DILI category: Severe
